Laboratory results taken from patent US9260415B2, “Heteroaryl pyridone and aza-pyridone compounds with electrophilic functionality” (Genentech, Inc., priority 2013, dated 2016).

biological target: BTK (Homo sapiens (Human), UniProt Q06187); assay: BTK LC3K biochemical assay (LabChip 3000 mobility shift)
Procedure: Formula I compounds were tested by biochemical Btk, Kinase assays (Example 901).
Alternatively, an in vitro BTK biochemical assay that quantifies BTK-catalyzed tyrosine phosphorylation of a synthetic peptide, as detected using a LabChip 3000® microfluidic mobility shift instrument (PerkinElmer; Waltham, Mass.) can be conducted. The substrate peptide, ProfilerPro® FL-Peptide 22 (Product No. 760366; PerkinElmer), has an amino-terminal fluorescent 5-carboxyfluorescein group (5-FAM) and a tyrosine residue that can be phosphorylated by BTK: 5-FAM-[…]-NH2. Purified recombinant human full-length catalytically active BTK protein was obtained from Carna Biosciences (Product No. 08-080; Kobe, Japan).
BTK assay mixtures contained 50 mM 4-(2-hydroxyethyl)-1-piperazineethanesulfonic acid buffer (pH 7.5), 10 mM magnesium chloride, 0.01% Triton X-100, 1 mM dithiothreitol, 1 μM FL-Peptide 22, 45 μM ATP, 1 nM BTK, and a titration of up to 10,000 nM test article in a final concentration of 0.5% (volume to volume [v/v]) DMSO. In the titration experiments, each of the test article concentrations (10 or 12 concentrations) was tested in duplicate. Blank reactions contained ATP, peptide, and DMSO, but no BTK or test article, whereas uninhibited control reactions contained ATP, peptide, BTK, and DMSO, but no test article.
Reactions were incubated for 30 minutes at room temperature (22° C.-23° C.) in a final volume of 20 μL per well in 384-well plates. Ten microliters of BTK plus peptide mixture were added to 10 μL of a mixture of ATP and test article (or vehicle) to initiate the reactions. Reactions were stopped by adding 10 μL of 0.25 M ethylenediaminetetraacetic acid (EDTA) at pH 8.0 to each well. In each reaction, the residual FL-Peptide 22 substrate (S) and the phospho-peptide product (P) generated were separated using the LabChip 3000 instrument. Electrophoretic separation of molecules of product from molecules of substrate was achieved using downstream and upstream voltages of −500 and −2250 V, respectively, at an operating pressure of −1 psi. The 5-FAM group present on both the substrate and product peptides was excited at 488 nm; the fluorescence at 530 nm was detected and the peak heights were reported.
Data Analysis: The extent (or percent) of conversion of substrate to product was calculated from the corresponding peak heights in the electropherogram using HTS Well Analyzer software, version 5.2 (PerkinElmer) and the following equation: conversion=[(P)÷(S+P)]×100 where S and P represent the peak heights of the substrate and product, respectively. After any baseline signal from blank wells containing no BTK was subtracted from the signal of all test wells, the % conversion data were converted to fractional activity as shown in Equation 2, where vi and vo are the % conversion in the presence and absence, respectively, of test article. The % conversion observed in the uninhibited control reaction wells containing BTK and DMSO vehicle, but no test article, was defined to have fractional activity=1 (in this case with no test article present, vi=vo), whereas blank wells with no BTK were defined as having fractional activity=0. Fractional activity was plotted against test article concentration and the data were fit using Genedata Screener software (Genedata; Basel, Switzerland) to the tight-binding apparent inhibition constant (Ki^app) Morrison equation [Williams, J. W. and Morrison, J. F. (1979) The kinetics of reversible tight-binding inhibition. Methods Enzymol 63:437-67]. The following equation was used to calculate fractional activity and Ki^app:
[formula] where [E]T and [I]T are the total concentrations of active enzyme (fixed value of 0.001 μM=1 nM) and test article (e.g., inhibitor; the varied parameter), respectively.

BTK, sequence (Q06187 whole entry): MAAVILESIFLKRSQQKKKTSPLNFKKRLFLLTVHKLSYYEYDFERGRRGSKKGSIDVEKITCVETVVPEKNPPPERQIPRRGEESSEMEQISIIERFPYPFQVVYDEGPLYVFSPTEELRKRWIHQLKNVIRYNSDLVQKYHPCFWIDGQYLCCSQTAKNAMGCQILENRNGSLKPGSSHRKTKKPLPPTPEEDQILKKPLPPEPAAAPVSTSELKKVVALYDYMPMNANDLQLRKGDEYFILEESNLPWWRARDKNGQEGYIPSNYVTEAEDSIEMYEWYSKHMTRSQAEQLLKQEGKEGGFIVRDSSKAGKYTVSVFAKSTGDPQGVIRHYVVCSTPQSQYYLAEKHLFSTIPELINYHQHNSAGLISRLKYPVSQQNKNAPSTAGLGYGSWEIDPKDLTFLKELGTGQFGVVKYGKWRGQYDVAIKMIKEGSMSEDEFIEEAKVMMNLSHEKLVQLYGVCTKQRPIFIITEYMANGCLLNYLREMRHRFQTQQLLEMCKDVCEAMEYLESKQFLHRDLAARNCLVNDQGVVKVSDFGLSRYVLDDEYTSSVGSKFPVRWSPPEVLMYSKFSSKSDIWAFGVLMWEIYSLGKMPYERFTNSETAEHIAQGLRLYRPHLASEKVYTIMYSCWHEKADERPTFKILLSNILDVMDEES

Question: With C=CC(=O)NCCOc1cccc(Nc2cc(-c3ccnc(N4CCn5c(cc6c5CC(C)(C)C6)C4=O)c3CO)cn(C)c2=O)n1 [Compound 101, N-{2-[(6-{[5-(2-{4,4-dimethyl-9-oxo-1,10-diazatricyclo[6.4.0.0^2,6]dodeca-2(6),7-dien-10-yl}-3-(hydroxymethyl)pyridin-4-yl)-1-methyl-2-oxo-1,2-dihydropyridin-3-yl]amino}pyridin-2-yl)oxy]ethyl}prop-2-enamide] as the compound, how does the Ki read?
Answer: The Ki was 792 pM.

Question: Cn1cc(-c2ccnc(N3CCn4c(cc5c4CC(C)(C)C5)C3=O)c2CO)cc(Nc2ccnc(N3CCC(C(=O)NCC#N)C3)n2)c1=O (stereo not shown) [Compound 102, N-(cyanomethyl)-1-(4-{[5-(2-{4,4-dimethyl-9-oxo-1,10-diazatricyclo[6.4.0.0^2,6]dodeca-2(6),7-dien-10-yl}-3-(hydroxymethyl)pyridin-4-yl)-1-methyl-2-oxo-1,2-dihydropyridin-3-yl]amino}pyrimidin-2-yl)pyrrolidine-3-carboxamide] was tested. Which Ki did it give?
Answer: The Ki was 864 pM.

Question: Which Ki does the source give for C=CC(=O)NCCOc1cccc(Nc2cc(-c3ccnc(-n4ncc5cc(C(C)(C)C)cc(F)c5c4=O)c3CO)cn(C)c2=O)n1 [Compound 104, N-[2-[[6-[[5-[2-(6-tert-butyl-8-fluoro-1-oxo-phthalazin-2-yl)-3-(hydroxymethyl)-4-pyridyl]-1-methyl-2-oxo-3-pyridyl]amino]-2-pyridyl]oxy]ethyl]prop-2-enamide] here?
Answer: Its Ki is 915 pM.

Question: How did the Ki turn out when C=CC(=O)NCCNc1cccc(Nc2cc(-c3cc(F)cc(-n4ncc5c6c(sc5c4=O)CCCC6)c3CO)cn(C)c2=O)n1 [Compound 105, N-[2-[[6-[[5-[5-fluoro-2-(hydroxymethyl)-3-(4-oxo-6,7,8,9-tetrahydrobenzothiopheno[2,3-d]pyridazin-3-yl)phenyl]-1-methyl-2-oxo-3-pyridyl]amino]-2-pyridyl]amino]ethyl]prop-2-enamide] was run?
Answer: The Ki was 248 pM.

Question: CC#CC(=O)NCCOc1cccc(Nc2cc(-c3cc(F)cc(-n4ncc5c6c(sc5c4=O)CCCC6)c3CO)cn(C)c2=O)n1 [Compound 106, N-[2-[[6-[[5-[5-fluoro-2-(hydroxymethyl)-3-(4-oxo-6,7,8,9-tetrahydrobenzothiopheno[2,3-d]pyridazin-3-yl)phenyl]-1-methyl-2-oxo-3-pyridyl]amino]-2-pyridyl]oxy]ethyl]but-2-ynamide] was tested. Which Ki did it give?
Answer: The Ki was 306 pM.

Question: Which Ki does the source give for C=CC(=O)N[C@@H](C)COc1cccc(Nc2cc(-c3ccnc(N4CCn5c(cc6c5CC(C)(C)C6)C4=O)c3CO)cn(C)c2=O)n1 [Compound 107, N-[(1S)-2-[[6-[[5-[2-(7,7-dimethyl-4-oxo-1,2,6,8-tetrahydrocyclopenta[3,4]pyrrolo[3,5-b]pyrazin-3-yl)-3-(hydroxymethyl)-4-pyridyl]-1-methyl-2-oxo-3-pyridyl]amino]-2-pyridyl]oxy]-1-methyl-ethyl]prop-2-enamide] here?
Answer: The Ki was 612 pM.

Question: With C=CC(=O)N[C@@H](C)COc1cccc(Nc2cc(-c3cc(F)cc(-n4ncc5c6c(sc5c4=O)CCCC6)c3CO)cn(C)c2=O)n1 [Compound 108, N-[(1S)-2-[[6-[[5-[5-fluoro-2-(hydroxymethyl)-3-(4-oxo-6,7,8,9-tetrahydrobenzothiopheno[2,3-d]pyridazin-3-yl)phenyl]-1-methyl-2-oxo-3-pyridyl]amino]-2-pyridyl]oxy]-1-methyl-ethyl]prop-2-enamide] as the compound, how does the Ki read?
Answer: Its Ki is 2570 pM.

Question: For C=CC(=O)NCCN(C)c1cccc(Nc2cc(-c3cc(F)cc(-n4ncc5c6c(sc5c4=O)CCCC6)c3CO)cn(C)c2=O)n1 [Compound 111, N-[2-[[6-[[5-[5-fluoro-2-(hydroxymethyl)-3-(4-oxo-6,7,8,9-tetrahydrobenzothiopheno[2,3-d]pyridazin-3-yl)phenyl]-1-methyl-2-oxo-3-pyridyl]amino]-2-pyridyl]-methyl-amino]ethyl]prop-2-enamide], which Ki is on record?
Answer: Its Ki is 494 pM.

Question: C=CC(=O)N(C)CCOc1cccc(Nc2cc(-c3ccnc(N4CCn5c(cc6c5CC(C)(C)C6)C4=O)c3CO)cn(C)c2=O)n1 [Compound 112, N-[2-[[6-[[5-[2-(7,7-dimethyl-4-oxo-1,2,6,8-tetrahydrocyclopenta[3,4]pyrrolo[3,5-b]pyrazin-3-yl)-3-(hydroxymethyl)-4-pyridyl]-1-methyl-2-oxo-3-pyridyl]amino]-2-pyridyl]oxy]ethyl]-N-methyl-prop-2-enamide] was tested. Which Ki did it give?
Answer: Its Ki is 1750 pM.

Question: With C=CC(=O)N(C)CCOc1cccc(Nc2cc(-c3cc(F)cc(-n4ncc5c6c(sc5c4=O)CCCC6)c3CO)cn(C)c2=O)n1 [Compound 113, N-[2-[[6-[[5-[5-fluoro-2-(hydroxymethyl)-3-(4-oxo-6,7,8,9-tetrahydrobenzothiopheno[2,3-d]pyridazin-3-yl)phenyl]-1-methyl-2-oxo-3-pyridyl]amino]-2-pyridyl]oxy]ethyl]-N-methyl-prop-2-enamide] as the compound, how does the Ki read?
Answer: Its Ki is 146 pM.

Question: With C=CC(=O)N[C@H]1CCCN(c2cccc(Nc3cc(-c4cc(F)cc(-n5ncc6c7c(sc6c5=O)CCCC7)c4CO)cn(C)c3=O)n2)C1 [Compound 115, N-[(3S)-1-[6-[[5-[5-fluoro-2-(hydroxymethyl)-3-(4-oxo-6,7,8,9-tetrahydrobenzothiopheno[2,3-d]pyridazin-3-yl)phenyl]-1-methyl-2-oxo-3-pyridyl]amino]-2-pyridyl]-3-piperidyl]prop-2-enamide] as the compound, how does the Ki read?
Answer: Its Ki is 2160 pM.

Question: How did the Ki turn out when C=C(C#N)C(=O)NCCOc1cccc(Nc2cc(-c3cc(F)cc(-n4ncc5c6c(sc5c4=O)CCCC6)c3CO)cn(C)c2=O)n1 [Compound 117, 2-cyano-N-[2-[[6-[[5-[5-fluoro-2-(hydroxymethyl)-3-(4-oxo-6,7,8,9-tetrahydrobenzothiopheno[2,3-d]pyridazin-3-yl)phenyl]-1-methyl-2-oxo-3-pyridyl]amino]-2-pyridyl]oxy]ethyl]prop-2-enamide] was run?
Answer: The Ki was 576 pM.

Question: How did the Ki turn out when CCC(=O)NCCOc1cccc(Nc2cc(-c3ccnc(N4CCn5c(cc6c5CC(C)(C)C6)C4=O)c3CO)cn(C)c2=O)n1 [Compound 119, N-{2-[(6-{[5-(2-{4,4-dimethyl-9-oxo-1,10-diazatricyclo[6.4.0.0^2,6]dodeca-2(6),7-dien-10-yl}-3-(hydroxymethyl)pyridin-4-yl)-1-methyl-2-oxo-1,2-dihydropyridin-3-yl]amino}pyridin-2-yl)oxy]ethyl}propanamide] was run?
Answer: Its Ki is 963 pM.
